Source: PubChem BioAssay (NCI)
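Protocol summary: plate cells (96-well), add compound at 5 concentrations, incubate 48 h, interpolate endpoints linearly. At the TGI there is no net growth.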

Key:
Experiment in all cases: DTP human tumour cell line panel, 48 h
[1] = system: MDA-N
[2] = system: DMS 114 small cell lung
[3] = system: DMS 273 small cell lung
[4] = system: HOP-18 NSCLC
[5] = system: LXFL 529 NSCLC
[6] = system: RXF-631 renal
[7] = system: XF 498 CNS
[8] = system: M19-MEL melanoma

Compound | TGI [1] [µM] | TGI [2] [µM] | TGI [3] [µM] | TGI [4] [µM] | TGI [5] [µM] | TGI [6] [µM] | TGI [7] [µM] | TGI [8] [µM]
COc1cc(C(=O)CBr)c(OC)cc1C | > 100 | – | – | – | – | – | – | –
O=C(CC1(O)C(=O)Nc2c(Cl)ccc(Cl)c21)c1ccc(F)cc1 (stereo not drawn) | – | 52.1 | > 100 | > 100 | 92.1 | > 100 | 77.1 | –
O=C1C(Cl)=C(NCCN2CCOCC2)C(=O)c2ncccc21 | 0.389 | – | – | – | – | – | – | –
CCOC(=O)/C(=C\c1ccccc1)C(=O)O | – | > 100 | > 100 | – | – | – | > 100 | > 100
CC(C)(CO)N1CCN(C(=S)Nc2ccccc2)CC1 | > 100 | – | – | – | – | – | – | –
COc1ccc(C(=O)C#Cc2cnc(OC)nc2OC)cc1 | 3.89 | – | – | – | – | – | – | –
Cc1c(C(=O)C/C(=N/NC(=O)C[N+](C)(C)C)C(=O)Nc2ccc(Cl)cc2)[n+](=O)c2ccccc2n1O | – | > 100 | > 100 | > 100 | > 100 | > 100 | > 100 | > 100
CC(SC(=S)N1CCOCC1)c1cc2oc(=O)n(C)c2cc1Cl (stereo not drawn) | – | > 100 | > 100 | > 100 | > 100 | – | > 100 | > 100
Cc1cc(N(CCC#N)CCC#N)ccc1/C=C1\N=C(c2cc([N+](=O)[O-])ccc2Cl)N(c2cccc(Cl)c2)C1=O | – | > 100 | > 100 | > 100 | > 100 | > 100 | – | > 100
CC1CN1C(=O)NCCCCCCNC(=O)N1CC1C (stereo not drawn) | > 100 | 98.3 | > 100 | > 100 | > 100 | – | > 100 | > 100
CC(=O)O[C@H]1C(=O)[C@@]2(C)C(C(OC(=O)c3ccccc3)[C@]3(O)CC(OC(=O)[C@H](OC(=O)CCC(=O)O)C(NC(=O)c4ccccc4)c4ccccc4)C(C)=C1C3(C)C)C1(OC(C)=O)COC1C[C@@H]2O (stereo partly drawn) | < 0.01 | – | – | – | – | – | – | –
O=[N+]([O-])c1ccc(C=NC2CCCCC2)cc1 | – | > 100 | > 100 | > 100 | – | > 100 | > 100 | > 100
O=C(CCN(C(=O)O)S(=O)(=O)c1ccc(NC(=O)c2ccccc2)cc1)NC1CCCCC1 | – | > 100 | > 100 | > 100 | > 100 | – | > 100 | > 100
O=C(O)c1nn(-c2ccccc2-c2n[nH]c(=O)[nH]c2=O)c(=O)[nH]c1=O | > 100 | – | – | – | – | – | – | –
O/N=C/c1ncccc1C1OCCO1 | – | > 100 | > 100 | > 100 | > 100 | – | > 100 | > 100
CC1OC(OC2C(OC(=O)[C@]34CCC(C)(C)CC3C3=CCC5[C@@]6(C)C[C@H](O)[C@H](OC7OC(CO)C(O)C(O)C7N)[C@@](C)(C(=O)O)C6CC[C@@]5(C)C3(C)CC4)OCC(O)C2O)C(O)C(O)C1OC1OCC(O)C(O)C1O (stereo partly drawn) | – | > 100 | > 100 | > 100 | – | – | – | > 100
O=C1c2ccccc2C(=O)N1CCc1ncc[nH]1 | > 100 | – | – | – | – | – | – | –
O=C(O)CCSC(=O)Nc1ccc([N+](=O)[O-])cc1 | – | > 100 | > 100 | – | > 100 | – | – | –
COc1ccc2c(c1)[n+](=O)c(C(=O)C/C(=N/OCCCc1ccccc1)C(=O)NC13CC4CC(CC(C4)C1)C3)c(C)n2[O-] | – | > 100 | > 100 | > 100 | > 100 | > 100 | > 100 | > 100
Nc1cccc(S(=O)(=O)NCC(=O)O)c1 | – | > 100 | > 100 | > 100 | > 100 | > 100 | > 100 | > 100
COC1(OC)CC2OC1C1N=NN(C(=O)OC(C)(C)C)C21 (stereo not drawn) | – | > 100 | > 100 | > 100 | > 100 | > 100 | > 100 | > 100
CC(=O)OCC1OC(NC(=S)N/N=C2\CC(c3ccccc3)Oc3ccccc32)C(OC(C)=O)C(OC(C)=O)C1OC(C)=O (stereo not drawn) | – | > 100 | > 100 | > 100 | > 100 | > 100 | > 100 | > 100
O=C1NC(=O)C(CCC(=O)c2ccc3ccccc3c2)C(=O)N1 | – | > 100 | > 100 | > 100 | > 100 | > 100 | > 100 | > 100
